Experimental data published in patent US8088804B2, “N-hydroxyamide derivatives possessing antibacterial activity” (Pfizer Inc., priority 2005, dated 2012).
In brackets after ≈: the same amount, converted by molar mass.

Assays:
E. coli (2) = assay: Susceptibility testing (MIC, CLSI microdilution); format: cell-based, Escherichia coli; conditions: 20 h at 35° C., in µg/mL (unit assumed)
Description: (§1) Compounds were tested following the microdilution method of CLSI (Clinical and Laboratory Standards Institute. Methods for dilution antimicrobial susceptibility tests for bacteria that grow aerobically; Approved standard—sixth edition. CLSI document M7-A5, CLSI, Wayne, Pa. 2003). Assays were performed in sterile plastic 96-well microtiter trays with round bottom wells (Greiner).
(§2) Stock solutions of test compounds and control antibiotics were prepared at 10 mg/ml in DMSO. Serial 2-fold dilutions of each drug were performed in a microtiter plate across each row using DMSO as solvent at 100-fold the desired final concentration. Wells in columns #1-11 contain drug and column #12 was kept as a growth control for the organism with no drug. Each well in the mother plate was diluted with sterile deionized water and DMSO, mixed, and volumes of 10 μl distributed to each well in the resulting assay plates.
(§3) Stock cultures were prepared using the Microbank™ method (Pro-Lab Diagnostics) and stored at −80° C. To propagate each strain, one bead was removed from the frozen vial and aseptically streaked onto Trypticase Soy Agar (Difco) which were incubated at 35° C. Standardized inocula were prepared using the direct colony suspension method according to CLSI guidelines (Clinical and Laboratory Standards Institute. Methods for dilution antimicrobial susceptibility tests for bacteria that grow aerobically; Approved standard—sixth edition. CLSI document M7-A5, CLSI, Wayne, Pa., 2003). Isolated colonies were selected from an 18-24 hr agar plate and resuspended in 0.9% sterile saline to match a 0.5 McFarland turbidity standard using a calorimeter (Vitek) at 80% of transmitance. The suspension was used within 15 minutes of preparation.
(§4) Mueller-Hinton Broth (MHB) (Difco) was prepared at a 1.1× concentration and supplemented with Ca++ and Mg++ as recommended by CLSI. For each organism, the standardized suspension was diluted 1:180 into appropriate growth medium in a sterile reservoir. After mixing, wells in the drug-containing assay plates were inoculated with a volume of 90 μl. Thus, for each minimum inhibitory concentration (MIC) determination, each well contains a final volume of 100 μl with an inoculum size of approximately 5×10^5 colony forming units (cfu)/ml and no more than 1% DMSO.
(§5) The completed microtiter plates were incubated 20 h at 35° C. in ambient air. Optical density of each well was determined at 600 nm using a VersaMax Microplate reader (Molecular Devices, Sunnyvale, Calif.). The MIC was defined as the lowest drug concentration causing complete suppression of visible bacterial growth.

E. coli tolC = assay: Susceptibility testing (MIC, CLSI microdilution); format: cell-based, Escherichia coli; conditions: 20 h at 35° C., unit assumed
Description: as §1, §2, §3, §4, §5

P. aerug. (2) = assay: Susceptibility testing (MIC, CLSI microdilution); format: cell-based, Pseudomonas aeruginosa; conditions: 20 h at 35° C., in µg/mL (unit assumed)
Description: as §1, §2, §3, §4, §5

P. aerug. Hypersuc = assay: Susceptibility testing (MIC, CLSI microdilution); format: cell-based, Pseudomonas aeruginosa; conditions: 20 h at 35° C., Δ efflux, hypersusceptible strain, unit assumed
Description: as §1, §2, §3, §4, §5

K. pneu. = assay: Susceptibility testing (MIC, CLSI microdilution); format: cell-based, Klebsiella pneumoniae; conditions: 20 h at 35° C., unit assumed
Description: as §1, §2, §3, §4, §5

H. influen. = assay: Susceptibility testing (MIC, CLSI microdilution); format: cell-based, Haemophilus influenzae; conditions: 20 h at 35° C., unit assumed
Description: as §1, §2, §3, §4, §5

P. ae LpxC enzyme = P. ae LpxC enzyme (Pseudomonas aeruginosa, UniProt P47205); assay: Enzyme inhibition testing (fluorescamine assay); format: biochemical; conditions: read-out: ENZYME (percent inhibition); for inhibition at 10 µg/mL: @10 μg/ml; for inhibition at 0.5 µg/mL: @0.5 μg/ml; for inhibition at 0.1 µg/mL: @0.1 μg/ml
Description: Compounds were tested based on a published method (Wang W., 2001, Anal Biochem, 290, 338-46) with modifications. Enzyme assays were performed in the assay buffer (50 mM HEPES, pH8, 0.005% Brij, 50 μM ZnSO4, 1 mg/ml BSA) in 96-well V-bottom microtiter plates.
Stock solutions of test compounds and control antibiotics are prepared at 10 mg/ml in DMSO and are diluted in the assay buffer to 6-fold the final testing concentration. 5 μl compound dilution is distributed to the well of the assay plate. EDTA is used as positive control and the final concentration in assay is 12.5 mM.
P. ae LpxC enzyme dilution in the assay buffer is added to the compound in plate and pre-incubated with the compound at room temperature for 10 min. LpxC substrate is added to initiate the enzyme reaction and the final enzyme and substrate concentrations are 1.2 μM and 0.4 mM, respectively. The reaction continues at RT for 4 hrs before diluted with 45 μl of Borate buffer (0.4 M, pH9), followed by addition of 40 μl derivatization reagent (fluorescamine 2 mg/ml DMF). This mixture is incubated at RT for 10 min followed by addition of 150 μl DMF/H2O (1:1). The resulting solution is loaded onto Millipore filter unit (Microcon 10 k MWCO) and spun at 13 k rpm on bench top centrifuge for 15 min. 100 μl of this filtrate is transferred to a low fluorescence clear-bottom 96-well plate (Corning) and the fluorescence is detected at ex360 nm and em465 nm on a Tecan fluorescence plate reader. The percent inhibition is calculated based on EDTA produces 100% inhibition and negative control produces 100% activity.

Chain of P. ae LpxC enzyme (P47205 whole entry): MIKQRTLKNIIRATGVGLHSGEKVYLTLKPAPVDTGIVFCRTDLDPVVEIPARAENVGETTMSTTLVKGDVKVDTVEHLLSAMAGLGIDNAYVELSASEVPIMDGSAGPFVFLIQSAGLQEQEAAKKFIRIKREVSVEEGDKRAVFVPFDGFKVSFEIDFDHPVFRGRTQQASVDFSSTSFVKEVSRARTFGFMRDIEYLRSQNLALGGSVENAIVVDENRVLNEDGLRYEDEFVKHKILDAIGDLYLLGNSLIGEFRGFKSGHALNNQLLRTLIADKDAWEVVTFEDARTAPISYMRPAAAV

SMILES	MIC E. coli (2) (E. coli (2))	MIC E. coli tolC (E. coli tolC)	MIC P. aerug. (2) (P. aerug. (2))	MIC P. aerug. Hypersuc (P. aerug. Hypersuc)	MIC K. pneu. (K. pneu.)	MIC H. influen. (H. influen.)	inhibition at 10 µg/mL (P. ae LpxC enzyme)	inhibition at 0.5 µg/mL (P. ae LpxC enzyme)	inhibition at 0.1 µg/mL (P. ae LpxC enzyme)
CCCc1ccc(-c2ccc(C(=O)N3CCS[C@H]3C(=O)NO)cc2)cc1 [Compound 13]	>64	> 64 µg/mL	64	16 µg/mL (≈ 43.2 µM)	32 µg/mL (≈ 86.4 µM)	64 µg/mL (≈ 173 µM)	71%		
CCCc1ccc(-c2ccc(C(=O)N3CC[S+]([O-])[C@H]3C(=O)NO)cc2)cc1 (stereo partly drawn) [Compound 14, (S)-N-Hydroxy-3-(4′-propylbiphenylcarbonyl)thiazolidine-sulfoxide-2-carboxamide]	>64	16 µg/mL (≈ 41.4 µM)	32	8 µg/mL (≈ 20.7 µM)	64 µg/mL (≈ 166 µM)	> 64 µg/mL		99%	
CCCc1ccc(-c2ccc(C(=O)N[C@@H](CCSC)C(=O)NO)cc2)cc1 [Compound 26, (S)-N-(1-(Hydroxyamino)-4-(methylthio)-1-oxobutan-2-yl)-4′-propylbiphenyl-4-carboxamide]	>64	> 64 µg/mL	>64	> 64 µg/mL	> 64 µg/mL	> 64 µg/mL		72%	
CCCc1ccc(-c2ccc(C(=O)N3CC[C@H](N=[N+]=[N-])[C@H]3C(=O)NO)cc2)cc1 [Compound 1, (2S,3S)-3-Azido-N-hydroxy-1-(4′-propylbiphenylcarbonyl)pyrrolidine-2-carboxamide]	>64	32 µg/mL (≈ 81.3 µM)	>64	> 64 µg/mL	> 64 µg/mL	> 64 µg/mL		35%	
CCCc1ccc(-c2ccc(C(=O)N3CC[C@H](NC=O)[C@H]3C(=O)NO)cc2)cc1 [Compound 4, (2S,3S)-3-Formamido-N-hydroxy-1-(4′-propylbiphenylcarbonyl)pyrrolidine-2-carboxamide]	>64	32 µg/mL (≈ 80.9 µM)	>64	64 µg/mL (≈ 162 µM)	> 64 µg/mL	> 64 µg/mL		69%	
O=C(NC(C(=O)NO)C(F)(F)F)c1ccc(-c2ccsc2)cc1 (racemic) [Compound 24, DL-4-Thiophen-3-yl-N-(2,2,2-trifluoro-1-hydroxycarbamoyl-ethyl)-benzamide]	>64	16 µg/mL (≈ 46.5 µM)	32	2 µg/mL (≈ 5.81 µM)	> 64 µg/mL	8 µg/mL (≈ 23.2 µM)			13%
CCCc1ccc(-c2ccc(C(=O)N[C@@H](CCS(C)(=O)=O)C(=O)NO)cc2)cc1 [Compound 27, (S)-N-(1-(Hydroxyamino)-4-(methylsulfone)-1-oxobutan-2-yl)-4′-propylbiphenyl-4-carboxamide]	>64	> 64 µg/mL	>64	> 64 µg/mL	> 64 µg/mL	> 64 µg/mL			38%
CCCc1ccc(-c2ccc(C(=O)N3C[C@H](O)[C@H](O)[C@H]3C(=O)NO)cc2)cc1 [Compound 10]	>64	64 µg/mL (≈ 166 µM)	>64	64 µg/mL (≈ 166 µM)	> 64 µg/mL	> 64 µg/mL		60%	
O=C(NO)[C@H]1N(C(=O)c2ccc(-c3ccc(C(F)(F)F)cc3)cc2)CCS1(=O)=O [Compound 38, (S)-3-(4′-(Trifluoromethyl)biphenylcarbonyl)-N-hydroxythiazolidinesulfone-2-carboxamide]	>64	≤ 0.06 µg/mL	32	8 µg/mL (≈ 18.7 µM)	> 64 µg/mL	> 64 µg/mL			30%
CCCc1ccc(-c2ccc(C(=O)N3CC[C@H](F)[C@H]3C(=O)NO)cc2)cc1 [Compound 6]	>64	16 µg/mL (≈ 43.2 µM)	>64	32 µg/mL (≈ 86.4 µM)	32 µg/mL (≈ 86.4 µM)	> 64 µg/mL		87%	
CCCc1ccc(-c2ccc(C(=O)N3C[C@@H](N)[C@H](O)[C@H]3C(=O)NO)cc2)cc1 [Compound 11, (2S,3S,4R)-4-Amino-N,3-dihydroxy-1-(4′-propylbiphenylcarbonyl)pyrrolidine-2-carboxamide]	>64	32 µg/mL (≈ 83.5 µM)	64	16 µg/mL (≈ 41.7 µM)	> 64 µg/mL	32 µg/mL (≈ 83.5 µM)		84%	
CCCc1ccc(-c2ccc(C(=O)NC(CF)C(=O)NO)cc2)cc1 (racemic) [Compound 21, DL-4′-Propyl-biphenyl-4-carboxylic acid (2-fluoro-1-hydroxycarbamoyl-ethyl)-amide]	16-32	4 µg/mL (≈ 11.6 µM)	>64	16 µg/mL (≈ 46.5 µM)	8 µg/mL (≈ 23.2 µM)	8 µg/mL (≈ 23.2 µM)		77%	
COc1ccc(C(=O)N2CC[C@@H](O)[C@H]2C(=O)NO)cc1SC(F)(F)F [Compound 40, (2S,3R)-3-Hydroxy-N-hydroxy-1-(4-methoxy-3-trifluoromethylsulfanyl-benzoyl)-pyrrolidine-2-carboxamide]	>64	32 µg/mL (≈ 84.1 µM)	>64	> 64 µg/mL	64 µg/mL (≈ 168 µM)	> 64 µg/mL	52%		
CCc1ccc(-c2ccc(C(=O)N3CC[C@@H](N)[C@H]3C(=O)NO)cc2)cc1 [Compound 34, (2S,3R)-3-Amino-N-hydroxy-1-(4′-ethylbiphenylcarbonyl)pyrrolidine-2-carboxamide]	>64	> 64 µg/mL	16-32	64 µg/mL (≈ 181 µM)	> 64 µg/mL	> 64 µg/mL		93%	
O=C(NO)[C@H]1N(C(=O)c2ccc(Oc3ccccc3)cc2)CCS1(=O)=O [Compound 35, (S)-N-Hydroxy-3-(4-phenoxybenzoyl)thiazolidinesulfone-2-carboxamide]	>64	0.125 µg/mL (≈ 0.332 µM)	>64	> 64 µg/mL	> 64 µg/mL	> 64 µg/mL			21%
CCCc1ccc(-c2ccc(C(=O)N[C@@H](Cn3cccn3)C(=O)NO)cc2)cc1 [Compound 31]	>64	1 µg/mL (≈ 2.55 µM)	>64	64 µg/mL (≈ 163 µM)	> 64 µg/mL	> 64 µg/mL		100%	
